Reference: patent publication US20250304623A1, “PEPTIDES FOR INTRACELLULAR DELIVERY” (UNIVERSIDADE DE SANTIAGO DE COMPOSTELA, priority 2022, published 2025)
*: point of attachment. NHNH2 = NN*

Experiments:
Type in all cases: cell-based
[1] = test system: A549 cells expressing EGFP; assay: EGFP-targeting siRNA delivery (GFP silencing vs siMOCK), A549; details: for siRNA % fluorescence reduction vs siMOCK: A549, amphiphile 5 μM, hydrophobic tail; for percentage of GFP-silencing relative to siMOCK: A549 cells
[2] = test system: HCT116 cells expressing EGFP; assay: Cas9-RNP delivery against EGFP (gene editing, plate reader), HCT116
Method in brief: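 Gene editing was estimated as the percent drop in GFP fluorescence relative to untreated cells, after subtracting background from untreated controls; triplicate means were reported. EGFP-expressing HCT116 cells received RNP/amphiphile mixtures in DMEM for 4 h, then fresh DMEM with 10% FBS. Total fluorescence was measured 72 h later on a plate reader.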

[3] = test system: A549 cells expressing EGFP; assay: Cas9-RNP delivery against EGFP (gene editing, plate reader), A549; details: A549 cells
Method in brief: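 A549 cells stably expressing EGFP were seeded in 96-well plates at 50,000 cell/mL (100 μL/w) the day before. A Cas9 ribonucleoprotein targeting the EGFP gene was complexed with amphiphile for 30 min at room temperature, then applied for 4 h at 50 nM Cas9-RNP. EGFP fluorescence was read on a plate reader after 72 h, in triplicate.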

Substance | percentage of GFP-silencing relative to siMOCK ([1]; Dodecanal, 5 μM) [%] | percentage of GFP-silencing relative to siMOCK ([1]; Dodecanal, 10 μM) [%] | percentage of GFP-silencing relative to siMOCK ([1]; Myristoleyl, 5 μM) [%] | percentage of GFP-silencing relative to siMOCK ([1]; Myristoleyl, 10 μM) [%] | percentage of GFP-silencing relative to siMOCK ([1]; Myristoleyl, 15 μM) [%] | percentage of GFP-silencing relative to siMOCK ([1]; Oleyl, 10 μM) [%] | percentage of GFP-silencing relative to siMOCK ([1]; Oleyl, 15 μM) [%] | percentage of gene editing, GFP fluorescence intensity decrease (% of reduction) ([2]; Dodecanal, 5 μM) [%] | percentage of gene editing, GFP fluorescence intensity decrease (% of reduction) ([2]; Dodecanal, 15 μM) [%] | percentage of gene editing, GFP fluorescence intensity decrease (% of reduction) ([2]; Myristoleyl, 15 μM) [%] | percentage of gene editing, GFP fluorescence intensity decrease (% of reduction) ([2]; Oleyl, 5 μM) [%] | percentage of gene editing, GFP fluorescence intensity decrease (% of reduction) ([3]; Dodecanal, 10 μM) [%] | percentage of gene editing, GFP fluorescence intensity decrease (% of reduction) ([3]; Myristoleyl, 5 μM) [%] | percentage of gene editing, GFP fluorescence intensity decrease (% of reduction) ([3]; Oleyl, 10 μM) [%] | percentage of gene editing, GFP fluorescence intensity decrease (% of reduction) ([3]; Oleyl, 15 μM) [%] | percentage of gene editing, GFP fluorescence intensity decrease (% of reduction) ([3]; Palmitoleyl, 10 μM) [%] | percentage of gene editing, GFP fluorescence intensity decrease (% of reduction) ([3]; Palmitoleyl, 15 μM) [%] | percentage of gene editing, GFP fluorescence intensity decrease (% of reduction) ([3]; Petroselinyl, 5 μM) [%] | percentage of gene editing, GFP fluorescence intensity decrease (% of reduction) ([3]; Petroselinyl, 15 μM) [%] | also measured
Ac-RRLK*RLK*RRLK*RL-NH2 [Peptide 13.3] | 59 | 54 | 57 | 25 | 28 | 14 | 4 | 25 | 20 | 10 | −1 | 20 | 21 | 14 | 48 | 33 | 48 | 12 | 56 | siRNA % fluorescence reduction vs siMOCK ([1]; dodecanal hydrophobic tail): 58%; siRNA % fluorescence reduction vs siMOCK ([1]; myristoleyl hydrophobic tail): 57%; siRNA % fluorescence reduction vs siMOCK ([1]; palmitoleyl hydrophobic tail): 60%; percentage of GFP-silencing relative to siMOCK ([1]; Dodecanal, 15 μM): 46%; percentage of GFP-silencing relative to siMOCK ([1]; Palmitoleyl, 5 μM): 60%; percentage of GFP-silencing relative to siMOCK ([1]; Palmitoleyl, 10 μM): 37%; percentage of GFP-silencing relative to siMOCK ([1]; Palmitoleyl, 15 μM): 29%; percentage of GFP-silencing relative to siMOCK ([1]; Petroselinyl, 5 μM): 31%; percentage of GFP-silencing relative to siMOCK ([1]; Petroselinyl, 10 μM): 53%; percentage of GFP-silencing relative to siMOCK ([1]; Petroselinyl, 15 μM): 59%; percentage of gene editing, GFP fluorescence intensity decrease (% of reduction) ([2]; Dodecanal, 10 μM): 10%; percentage of gene editing, GFP fluorescence intensity decrease (% of reduction) ([2]; Palmitoleyl, 5 μM): −18%; percentage of gene editing, GFP fluorescence intensity decrease (% of reduction) ([2]; Palmitoleyl, 15 μM): 18%; percentage of gene editing, GFP fluorescence intensity decrease (% of reduction) ([3]; Myristoleyl, 10 μM): 33%; percentage of gene editing, GFP fluorescence intensity decrease (% of reduction) ([3]; Myristoleyl, 15 μM): 62%; percentage of gene editing, GFP fluorescence intensity decrease (% of reduction) ([3]; Petroselinyl, 10 μM): 32%
Ac-RRLK*RLLRRLK*RL-NH2 (Ac-RRLK(NHNH2)RLLRRLK(NHNH2)RL-NH2; not fully specified; printed as Ac-RRLK*RLLRRLK*RL-NH2; also: K*4,K*11: native or modified lysine (ε-amide to a linker)) [Peptide 13.2] |  |  |  |  |  | −2 | −21 |  |  |  | −6 |  |  | 12 | 4 |  |  |  |  | percentage of GFP-silencing relative to siMOCK ([1]; Oleyl, 5 μM): 19%; percentage of gene editing, GFP fluorescence intensity decrease (% of reduction) ([3]; Oleyl, 5 μM): 10%
Ac-RRLK*RLLRRLK*RLK*RRL-NH2 (Ac-RRLK(NHNH2)RLLRRLK(NHNH2)RLK(NHNH2)RRL-NH2; not fully specified; printed as Ac-RRLK*RLLRRLK*RLK*RRL-NH2; also: K*4,K*11,K*14: native or modified lysine (ε-amide to a linker)) [Peptide 17.3] | 25 | 4 | 24 | 8 | 6 |  |  | −2 | 22 | 26 |  | 75 | 17 | 72 | 34 | 60 | 72 | 23 | 66 | percentage of gene editing, GFP fluorescence intensity decrease (% of reduction) ([2]; Petroselinyl, 5 μM): −4%; percentage of gene editing, GFP fluorescence intensity decrease (% of reduction) ([3]; Dodecanal, 15 μM): 34%; percentage of gene editing, GFP fluorescence intensity decrease (% of reduction) ([3]; Palmitoleyl, 5 μM): 17%
